Values quoted from earlier work, collected in PMC12805357, “Cooperative ligand binding in a bacterial heme-based oxygen sensor” (The Journal of Biological Chemistry, 2025).

Legend:
[1] = set-up: method as in earlier work; settings: myoglobins; ref 7 of the supplement (Faulkner et al., 1995)
[2] = sperm whale myoglobin

n (Hill coefficient), O2 binding [2]: 0.95 ± 0.05 | Kd ([2]; read-out: Kd, equilibrium oxygen affinity): 830 to 1500 nM
Substance: sperm whale myoglobin (swMb): sperm whale myoglobin, literature comparison protein
Midpoint 1 (mV vs SHE) [1]: 47 mV vs SHE
